Assays:
[1] = Hygroscopicity (statement, no method described); type: physicochemical; conditions: in words
[2] = In-vitro intrinsic dissolution of 200 mg pellets of API without excipients; type: physicochemical; conditions: Table 8, 200 mg pellet, 0.01N HCl, 37° C., paddle 75 rpm
Experimental: A tableting mixture (200 mg) comprising solely salts of (((1-(6-amino-9H-purin-9-yl)propan-2-yloxy)methyl) (phenoxy) phosphoryloxy) methyl pivalate-prepared according to any one of the examples 1 to 10 (i.e. with no excipients) was prepared and compressed to a pellet using an automatic KBR press operating at a compression pressure of 2 tones for 2 minutes.
Similarly a tableting mixture (200 mg) comprising a solely TAF (i.e. with no excipients) was prepared and compressed to a pellet using an automatic KBR press operating at a compression pressure of 2 tones for 2 minutes.
A tableting mixture (200 mg) comprising solely TDF (i.e. with no excipients) was prepared and compressed to a pellet using an automatic KBR press operating at a compression pressure of 2 tones for 2 minutes.
In-vitro dissolution studies were performed on the 200 mg pellet in a LAB INDIA DISSO 2000.
The pellet was fixed in a PFTE holder, such that only the pellet surface came into contact with the dissolution medium. The PFTE loaded holder was placed in the dissolution vessel containing 900 ml of 0.1M of HCl having […] at 37±0.5° C. Two pellets were measured for each run of the design of the experiments. Stirring was performed with a paddle rotating at 75 rpm. […]
Dissolution Media: 0.01N HCl
Bath temperature: 37.5° C.
Sample Preparation: Pellets were prepared by pressing sample with 2 ton pressure for 2 min
Note: Aliquots were analysed on HPLC.
The concentration of (((1-(6-amino-9H-purin-9-yl)propan-2-yloxy)methyl) (phenoxy) phosphoryloxy) methyl pivalate was quantified by HPLC UV method at a maximum wavelength of 300 nm under the conditions as specified below:
Standard Preparation: 25 mg standard dissolved to 25 ml with dissolution medium. 5 ml of this solution diluted to 25 ml with dissolution medium. Further 5 ml of this solution was diluted to 10 ml with diluent.
Sample Preparation: 200 mg of Sample pellets were prepared and subjected to dissolution. 10 ml of Aliquot was removed from the dissolution basket at predetermined time intervals. 5 ml of these aliquot was diluted to 10 ml with Diluent.
200 mg of input API of fumarate salt of (((1-(6-amino-9H-purin-9-yl)propan-2-yloxy)methyl) (phenoxy) phosphoryloxy) methyl pivalate used for pellet preparation.
The percentage of (((1-(6-amino-9H-purin-9-yl)propan-2-yloxy)methyl) (phenoxy) phosphoryloxy) methyl pivalate (TD), Tenofovir Alafenamide (TAF) and Tenofovir Disoproxil (TDF) released from the respective fumarate salt tablet were plotted against time as shown in FIG. 19. The intrinsic dissolution rate was derived from the slope of this curve.
To measure the intrinsic dissolution of the Salts of (((1-(6-amino-9H-purin-9-yl)propan-2-yloxy)methyl) (phenoxy) phosphoryloxy) methyl pivalate, samples were measured to compare the influence of the different parameter settings. At appropriate time intervals, an automated sample collector removes aliquots from the dissolution medium for analysis. The time interval for sampling can vary, for example, from 5 to 120 minutes, depending on the properties of the drug and dissolution medium used. Suitable dissolution equipment for these operations includes LAB INDIA DISSO 2000. Bath temperature—37.5° C.
200 mg of input API of each fumarate, oxalate, phosphate, citrate, succinate and tartrate Salts of (((1-(6-amino-9H-purin-9-yl)propan-2-yloxy)methyl) (phenoxy) phosphoryloxy) methyl pivalate used for pellet preparation.
The percentage of (((1-(6-amino-9H-purin-9-yl)propan-2-yloxy)methyl) (phenoxy) phosphoryloxy) methyl pivalate released from the respective salts tablet were plotted against time as shown in FIG. 20. The intrinsic dissolution rate was derived from the slope of this curve.

[3] = Solubility in physiologically acceptable solvents (statement, no method described); conditions: in words

CC(Cn1cnc2c(N)ncnc21)OCP(=O)(OCOC(=O)C(C)(C)C)Oc1ccccc1.O=C(O)CCC(=O)O (stereo not shown) [Succinate, (((1-(6-amino-9H-purin-9-yl)propan-2-yloxy)methyl) (phenoxy)phosphoryloxy) methyl pivalate succinic acid salt]
hygroscopicity [1]: not hygroscopic
% release of Compound (I) from the respective Salts ([2]; 5 min): 3%
% release of Compound (I) from the respective Salts ([2]; 15 min): 3%
% release of Compound (I) from the respective Salts ([2]; 30 min): 16%
% release of Compound (I) from the respective Salts ([2]; 45 min): 23%
% release of Compound (I) from the respective Salts ([2]; 60 min): 30%
% release of Compound (I) from the respective Salts ([2]; 90 min): 45%
% release of Compound (I) from the respective Salts ([2]; 120 min): 59%
% release of Compound (I) from the respective Salts ([2]; 150 min): 74%
% release of Compound (I) from the respective Salts ([2]; 180 min): 85%
% release of Compound (I) from the respective Salts ([2]; 210 min): 90%
% release of Compound (I) from the respective Salts ([2]; 240 min): 92%
solubility in physiologically acceptable solvents [3]: readily soluble

— US11390637B2, “Salts of antiviral phosphonate analogues and process for preparation thereof” (CIPLA LIMITED, priority 2017, dated 2022)
